# Active and inactive are the calls of the source. The calls are words filed in the database; no cut-off is given here.
# Legend:
# [1] = Binding affinity to Pradimicin A assessed as suppression of pradimicin A induced growth inhibition of Candida rugosa AJ14513 by measuring minimum antagonistic concentration measured after 48 hrs by visual analysis
# [2] = Induction of Pradimicin-FA1 aggregation assessed as concentration required to induce 50% aggregation incubated for 15 mins and further incubated for 30 mins at room temperature by RP-HPLC analysis
# [3] = Binding affinity to Pradimicin A assessed as pradimicin A/Ca2+/compound ternary complex formation by measuring molar ratio at 50 umol incubated at 60 degreeC for 15 mins and room temperature for 1 hr in presence of CaCl2 and further incubated at 4 degreeC for 1 hr by coprecipitation based 1H-NMR analysis; conditions: dose 50.0 µmol, time 2.25 hrs
# [4] = tested on: Diutina rugosa; experiment: Antifungal activity against Candida rugosa AJ14513 assessed as inhibition of fungal growth at 32 ug/ml measured after 48 hrs by visual analysis relative to control; format: functional
# [5] = tested on: SARS-CoV-2; experiment: Antiviral activity against SARS-CoV-2 JPN/NGS/SC-1/2020 infected in human Calu-3 cells assessed as inhibition of viral infection pretreated with cells for 1 hr followed by viral infection and measured after 3 days by immunofluorescence analysis; format: functional, organism-based; conditions: Severe acute respiratory syndrome coronavirus 2, JPN/NGS/SC-1/2020, Calu-3
# [6] = tested on: Calu-3; experiment: Cytotoxicity against human Calu-3 cells infected with SARS-CoV-2 JPN/NGS/SC-1/2020 assessed as reduction in cell viability at 0.3 to 100 uM pretreated with cells for 1 hr followed by viral infection and measured after 3 days; format: toxicity, cell-based; conditions: calu-3, 73 h, dose 0.3-100 µM
# [7] = tested on: SARS-CoV-2; experiment: Antiviral activity against SARS-CoV-2 JPN/NGS/SC-1/2020 infected in human Calu-3 cells assessed as inhibition of viral infection at 6.25 uM pretreated with cells for 1 hr followed by viral infection and measured after 3 days by immunofluorescence analysis relative to control; format: functional, Severe acute respiratory syndrome coronavirus 2; parameters: scale not given: the % may be the effect or the level left; conditions: time 73 hrs
# [8] = tested on: SARS-CoV-2; experiment: Antiviral activity against SARS-CoV-2 JPN/NGS/SC-1/2020 infected in human Calu-3 cells assessed as inhibition of viral infection at 6.25 uM pretreated with cells for 1 hr in presence of (2S,3S,4S,5R,6R)-4-(((2S,3R,4S,5S,6R)-3,4,5-trihydroxy-6-(hydroxymethyl)tetrahydro-2H-pyran-2-yl)oxy)-6-((((2S,3S,4S,5S,6R)-3,4,5-trihydroxy-6-(hydroxymethyl)tetrahydro-2H-pyran-2-yl)oxy)methyl)tetrahydro-2H-pyran-2,3,5-triol followed by viral infection and measured after 3 days by immunofluorescence analysis; format: functional, organism-based; conditions: Severe acute respiratory syndrome coronavirus 2, time 73.0 hrs
SMILES,MAC [1],AC50 [2],further results
CO[C@H]1O[C@H](CO[C@H]2O[C@H](CO)[C@@H](O)[C@H](O)[C@@H]2O)[C@@H](O)[C@H](O[C@@H]2O[C@H](CO)[C@@H](O)[C@H](O)[C@H]2O)[C@@H]1O,16 mM,> 10 mM,
CO[C@H]1O[C@H](CO)[C@@H](O[C@@H]2O[C@H](CO)[C@H](OC)[C@H](O)[C@H]2NC(C)=O)[C@H](O)[C@@H]1NC(C)=O,> 64 mM,> 10 mM,
CO[C@H]1O[C@H](CO[C@H]2O[C@H](CO)[C@@H](O)[C@H](O)[C@H]2O)[C@@H](O)[C@H](O[C@@H]2O[C@H](CO)[C@@H](O)[C@H](O)[C@H]2O)[C@@H]1O,16 mM,> 10 mM,
OC[C@H]1O[C@H](OC[C@H]2O[C@H](O)[C@@H](O)[C@@H](O[C@@H]3O[C@H](CO)[C@@H](O)[C@H](O)[C@H]3O)[C@@H]2O)[C@@H](O)[C@@H](O)[C@@H]1O,1 mM,0.06 mM,Ratio [3]: 0.52
CO[C@H]1O[C@H](CO)[C@@H](O)[C@H](O)[C@@H]1O,16 mM,5 mM,Ratio [3]: 0.96
CO[C@H]1O[C@H](CO)[C@@H](O[C@@H]2O[C@H](CO)[C@H](O)[C@H](O)[C@H]2O)[C@H](O)[C@@H]1NC(C)=O,> 64 mM,> 10 mM,
CO[C@@H]1O[C@H](CO[C@]2(C(=O)O)C[C@H](O)[C@@H](NC(C)=O)[C@H]([C@@H](O)[C@H](O)CO)O2)[C@H](O)[C@H](O)[C@H]1O,> 64 mM,> 10 mM,
CO[C@H]1O[C@H](CO)[C@@H](O)[C@H](O)[C@@H]1O[C@@H]1O[C@H](CO)[C@@H](OC)[C@H](O)[C@@H]1NC(C)=O,> 64 mM,> 10 mM,
CN[C@@H]1[C@H](O[C@@H]2OC[C@@H](O)[C@H](O)[C@H]2O)[C@@H](O)[C@H](O[C@H]2c3cc(C)c(C(=O)N[C@H](C)C(=O)O)c(O)c3-c3c(cc4c(c3O)C(=O)c3cc(OC)cc(O)c3C4=O)[C@@H]2O)O[C@@H]1C [PRADIMICIN A],,,inhibition at 32 µg/mL [4]: 100%; IC50 [5]: 0.0012 mM; Activity [6]: Non-Toxic; Activity [7]: ~100%; Activity [8]: inactive
CO[C@H]1O[C@H](CO)[C@@H](O)[C@H](O)[C@@H]1O[C@H]1O[C@H](CO)[C@@H](O)[C@H](O)[C@@H]1O,16 mM,> 10 mM,
CO[C@H]1O[C@H](CO[C@H]2O[C@H](CO)[C@@H](O)[C@H](O)[C@@H]2O[C@H]2O[C@H](CO)[C@@H](O)[C@H](O)[C@@H]2O)[C@@H](O)[C@H](O[C@H]2O[C@H](CO)[C@H](O)[C@@H](O)[C@@H]2O[C@@H]2O[C@H](CO)[C@@H](O)[C@H](O)[C@H]2O)[C@@H]1O,1 mM,0.07 mM,
CO[C@H]1O[C@H](CO)[C@@H](O)[C@H](O)[C@@H]1O[C@@H]1O[C@H](CO)[C@@H](O)[C@H](O)[C@@H]1NC(C)=O,> 64 mM,> 10 mM,
CO[C@H]1O[C@H](CO)[C@@H](O)[C@H](O)[C@H]1O,,,Ratio [3]: 0.05
CO[C@H]1O[C@H](CO[C@H]2O[C@H](CO)[C@@H](O)[C@H](O)[C@@H]2OC)[C@@H](O)[C@H](O[C@@H]2O[C@H](CO)[C@@H](O)[C@H](O)[C@H]2OC)[C@@H]1O,> 64 mM,> 10 mM,
